From US9238653B2, “Antimalarial agents that are inhibitors of dihydroorotate dehydrogenase” (BOARD OF REGENTS, THE UNIVERSITY OF TEXAS SYSTEM, priority 2009, dated 2016) come the findings set out here.

Like-named read-outs stand apart in the source and are kept apart here.

The target in series [1] is pfDHOD (Plasmodium falciparum (isolate 3D7), UniProt Q08210). The series is described as follows: DHOD enzyme inhibition, colorimetric DCIP reduction or direct orotic acid assay. The series is classed as biochemical. As to the method: Reactions are initiated by addition of enzyme to a final concentration in the range of about 5 nM to about 50 nM while maintaining the temperature of a circulating water bath at 25° C.
Assay solutions were prepared as discussed above, except that DCIP is not present and the solution is depleted of oxygen by the inclusion of an oxidase/reductase system, such as, 0.1 mg/ml of glucose oxidase, 0.02 mg/ml catalase and 50 mM glucose. The data obtained was fitted to equation 1, to determine the IC50 values of the representative compounds.

The subject of series [2] is P. falciparum 3D7. The series is described as follows: 3H-hypoxanthine uptake in P. falciparum-infected erythrocytes. Type of series: cell-based, Plasmodium falciparum. The conditions noted are these: read-out: EC50 P. falciparum 3D7.
Setting [3] is: Plasmodium falciparum, 3D7, Erythrocyte, 3D7 strain.
Where [4] appears, read: Plasmodium falciparum, 3D7, Erythrocyte.

Chain of pfDHOD (Q08210 24-569 limits assumed): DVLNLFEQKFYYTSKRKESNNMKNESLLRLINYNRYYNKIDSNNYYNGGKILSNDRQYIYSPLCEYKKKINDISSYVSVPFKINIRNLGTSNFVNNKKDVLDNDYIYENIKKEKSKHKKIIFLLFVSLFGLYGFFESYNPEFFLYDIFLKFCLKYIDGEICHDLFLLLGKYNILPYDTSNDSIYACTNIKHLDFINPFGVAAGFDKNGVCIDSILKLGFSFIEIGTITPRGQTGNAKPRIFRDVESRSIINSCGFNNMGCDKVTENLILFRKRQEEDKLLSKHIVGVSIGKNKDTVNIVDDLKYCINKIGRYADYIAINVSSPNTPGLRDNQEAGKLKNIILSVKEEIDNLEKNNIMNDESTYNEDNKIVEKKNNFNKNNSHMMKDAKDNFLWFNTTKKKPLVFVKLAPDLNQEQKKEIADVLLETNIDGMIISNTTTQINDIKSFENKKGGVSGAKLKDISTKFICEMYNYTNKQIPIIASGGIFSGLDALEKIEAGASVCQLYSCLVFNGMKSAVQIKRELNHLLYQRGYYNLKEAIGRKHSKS

`Cc1cc(Nc2ccc3c(c2)CCC3)n2ccnc2n1` [Example 54, N-(2,3-dihydro-1H-inden-5-yl)-7-methylimidazo[1,2-a]pyrimidin-5-amine]: the melting point lay within 255 to 257 °C.
For `Cc1cc(Nc2ccc(C(F)(F)F)c(F)c2)n2ccnc2n1` [drawing 333], the IC50 in series [1] stood at 140 nM. Also, the EC50 in series [2] (setting [3]) was 600 nM.
In the case of `CCc1c(C)nc2ncnn2c1Nc1ccc(C(C)C)cc1`, the IC50 in series [1] amounted to 1660 nM. The EC50 in series [2] (setting [3]) was > 10000 nM.
With `CCC(F)(F)c1nc2nc(C)cc(Nc3ccc(S(F)(F)(F)(F)F)cc3)n2n1`, in series [2] (setting [4]), the EC50 came out at 550 nM.
In turn, `Cc1cc(Nc2ccc(C(C)(C)C)c(F)c2)n2ncnc2n1` gave an IC50 in series [1] of 60 nM. In addition, the EC50 in series [2] (setting [3]) amounted to 100 nM.
`Cc1cc(Nc2ccc(S(F)(F)(F)(F)F)cc2)n2nc(C(F)(F)F)nc2n1` had a melting point of 178 to 180 °C.
In series [1], `COc1nc2nc(C)cc(Nc3ccc(S(F)(F)(F)(F)F)cc3)n2n1` came in with an IC50 of 42 nM. Also, the EC50 in series [2] (setting [3]) is 64 nM.
The molecule `Cc1cc(NC2Cc3ccc(F)cc3C2)n2ncnc2n1` (centres unmarked) gave an IC50 in series [1] of 610 nM. Besides, the 50% effective concentration (EC50) in series [2] (setting [4]) was found to be 1300 nM.
For `Cc1cc(Nc2ccc(Cl)c(F)c2)n2ncnc2n1` [drawing 338], in that order: 510 nM and 3500 nM.
On to `CCc1c(C)nc2ncnn2c1Nc1ccc(OC(F)(F)F)cc1`, for which, in series [2] (setting [3]), the EC50 was > 10000 nM.
In series [1], `Cc1cc(Nc2ccc3c(c2)CCCC3)n2ncnc2n1` [drawing 335] registered an IC50 of 100 nM. In series [2] (setting [3]), the EC50 came out at 300 nM.
Turning to `Cc1cc(NC2CCc3ccccc3C2)n2ncnc2n1` (centres unmarked), the IC50 in series [1] was found to be 500 nM. Besides, the EC50 in series [2] (setting [4]) is 1800 nM.
The molecule `Cc1cc(Nc2ccc(C(F)(F)F)cc2)n2nc(C(C)C)nc2n1` had an IC50 in series [1] of 110 nM. Also, the EC50 in series [2] (setting [4]) was determined as 98 nM.
`Cc1cc(Nc2ccc3c(c2)CCC3)n2ccnc2n1` [drawing 336]: the IC50 in series [1] is 130 nM. Also, the EC50 in series [2] (setting [3]) is 600 nM.
`Cc1cc(Nc2cc(F)c(C(F)(F)F)c(F)c2)n2nc(C(C)(F)F)nc2n1` registered an IC50 in series [1] of 20 nM. The EC50 in series [2] (setting [3]) amounted to 30 nM.
As for `CCc1nc2nc(C)cc(Nc3ccc(S(F)(F)(F)(F)F)cc3)n2n1`, the EC50 in series [2] (setting [3]) amounted to 100 nM.
Regarding `Cc1ccc(Nc2c3c(nc4ncnn24)CCC3)cc1F`, in series [2] (setting [4]), the EC50 was 8300 nM.
On to `Cc1cc(NC2Cc3ccc(Br)cc3C2)n2ncnc2n1` (centres unmarked) [drawing 343], for which the IC50 in series [1] came out at 990 nM. In addition, the EC50 in series [2] (setting [4]) came to 6600 nM.
`Cc1cc(NC2Cc3cc(F)c(F)cc3C2)n2ncnc2n1` yielded an IC50 in series [1] of 1000 nM. Besides, the EC50 in series [2] (setting [3]) was 1500 nM.
For the molecule `Cc1cc(Nc2ccc(C(F)(F)F)cc2)n2nc(C(C)(F)F)nc2n1`, the IC50 in series [1] is 38 nM. In addition, the EC50 in series [2] (setting [3]) was found to be 7 nM.
In series [1], `Cc1cc(Nc2cc(F)c(C(F)(F)F)c(F)c2)n2nc(C(F)(F)F)nc2n1` gave an IC50 of 22 nM. In addition, the EC50 in series [2] (setting [3]) was determined as 4.8 nM.
`Cc1cc(Nc2ccc(S(F)(F)(F)(F)F)cc2)n2nc(C)nc2n1`: half-maximal inhibition in series [1] (IC50) was put at 510 nM. In addition, in series [2] (setting [3]), the EC50 amounted to 420 nM.
Turning to `Cc1cc(NC2CCc3cc(F)ccc3C2)n2ncnc2n1` (centres unmarked), in series [1], inhibition was half-maximal at 630 nM (IC50). Moreover, the EC50 in series [2] (setting [4]) worked out at 2500 nM.
Take `Cc1cc(Nc2ccc(C(F)(F)F)c(C(F)(F)F)c2)n2ncnc2n1`: it took 540 nM to reach half-maximal inhibition in series [1] (IC50). Further, the EC50 in series [2] (setting [4]) worked out at 2300 nM.
With `Cc1cc(Nc2ccc3sccc3c2)n2ncnc2n1`, 90 nM corresponded to half-maximal inhibition in series [1] (IC50). For the same molecule, the EC50 in series [2] (setting [3]) is 70 nM.
Molecule `FC(F)(F)c1ccc(Nc2cc(C(F)(F)F)nc3ncnn23)cc1` showed an IC50 in series [1] of 1700 nM. Also, the EC50 in series [2] (setting [3]) is > 10000 nM.
In series [1], `Brc1ccc(Nc2c3c(nc4ncnn24)CCCC3)cc1` displayed a 50% inhibitory concentration (IC50) of 2120 nM. In series [2] (setting [3]), the EC50 was determined as 9900 nM.
For `COc1cc2c(cc1OC)CC(Nc1cc(C)nc3ncnn13)C2`, the IC50 in series [1] was determined as 4620 nM. For the same molecule, the EC50 in series [2] (setting [4]) worked out at 7700 nM.
`Cc1cc(NC2Cc3cc(Cl)c(Cl)cc3C2)n2ncnc2n1` yielded an IC50 in series [1] of 1200 nM. Moreover, the EC50 in series [2] (setting [3]) was > 5000 nM.
In series [1], `Cc1cc(Nc2ccc(SC(F)(F)F)cc2)n2ncnc2n1` came in with an IC50 of 610 nM. The EC50 in series [2] (setting [3]) is > 4000 nM.
`Cc1cc(Nc2ccc(CC(F)(F)F)cc2)n2ncnc2n1` [drawing 337]: it took 2470 nM to reach half-maximal inhibition in series [1] (IC50).
`Cc1cc(Nc2ccc(C(F)(F)F)c(F)c2)n2nc(C(C)(F)F)nc2n1` showed an IC50 in series [1] of 35 nM. Moreover, the EC50 in series [2] (setting [3]) came out at 9.3 nM.
Consider `Cc1cc(Nc2ccc(S(F)(F)(F)(F)F)cc2)n2nc(C(C)(F)F)nc2n1`, for which, in series [2] (setting [4]), the EC50 is 19 nM.
The molecule `CC(C)c1ccc(Nc2c3c(nc4ncnn24)CCC3)cc1` had an IC50 in series [1] of 250 nM. Also, the EC50 in series [2] (setting [3]) amounted to 1800 nM.
Take `CCC(F)(F)c1nc2nc(C)cc(Nc3ccc(C(F)(F)F)cc3)n2n1`: the half-maximal inhibitory concentration (IC50) in series [1] was 190 nM. Moreover, in series [2] (setting [4]), the EC50 stood at 45 nM.
In the case of `Cc1cc(Nc2ccc(CC(F)(F)F)cc2)n2ncnc2n1` [Example 25, 5-Methyl-N-(4-(2,2,2-trifluoroethyl)phenyl)-[1,2,4]triazolo[1,5-a]pyrimidin-7-amine], the melting point came out at 204 °C.
For the molecule `Cc1cc(Nc2ccc(S(F)(F)(F)(F)F)cc2)n2nc(C(F)(F)F)nc2n1` [drawing 344], half-maximal inhibition in series [1] (IC50) required 130 nM. Moreover, the EC50 in series [2] (setting [4]) was 140 nM.
In turn, `Cc1cc(Nc2ccc(Cl)cc2)n2nc(C(C)(F)F)nc2n1` gave an IC50 in series [1] of 28 nM. Moreover, the EC50 in series [2] (setting [3]) was found to be 33 nM.
For `Cc1cc(Nc2ccc(Cl)cc2)n2nc(C(F)(F)F)nc2n1`, in that order: 90 nM and 260 nM.
For `Cc1cc(Nc2ccc(Cl)c(F)c2)n2nc(C(F)(F)F)nc2n1`, in that order: 520 nM and 250 nM.
Consider `Cc1cc(Nc2ccc(Cl)c(F)c2)n2ncnc2n1`, for which the melting point was determined as 285 °C.
On to `Cc1cc(Nc2ccc3c(c2)CCCC3)n2ncnc2n1` [drawing 353], for which, in series [1], inhibition was half-maximal at 32 nM (IC50). In addition, the EC50 in series [2] (3D7 strain) turned out to be 200 nM.
On to `COc1nc2nc(C)cc(Nc3cccc(Cl)c3)n2n1`, for which, in series [2] (setting [3]), the EC50 amounted to 1000 nM.
`Cc1cc(Nc2ccc(C(F)(F)F)cc2)n2nc(C(F)(F)F)nc2n1` [drawing 329] came in with an IC50 in series [1] of 35 nM. For the same molecule, the EC50 in series [2] (setting [4]) was found to be 73 nM.
For the molecule `Cc1cc(Nc2cc(F)c(C(F)(F)F)c(F)c2)n2ncnc2n1`, half-maximal inhibition in series [1] (IC50) required 190 nM. For the same molecule, the EC50 in series [2] (setting [3]) is 240 nM.
The molecule `Cc1cc(Nc2ccc3c(c2)CCCC3)n2ccnc2n1` [Example 53, 7-Methyl-N-(5,6,7,8-tetrahydronaphthalen-2-yl)imidazo[1,2-a]pyrimidin-5-amine] came in with a melting point of 264 to 266 °C.
For `Cc1cc(NC2CCc3ccccc3C2)n2nc(C(F)(F)F)nc2n1` (centres unmarked), the midpoint of inhibition in series [1], the IC50, lay at 1200 nM.
With `Cc1cc(Nc2ccc(C(F)(F)F)cc2)n2nc(C(F)(F)F)nc2n1`, the melting point was 124 to 126 °C.
In the case of `Cc1cc(Nc2ccc(S(F)(F)(F)(F)F)cc2)n2ccnc2n1`, in series [2] (setting [3]), the EC50 was found to be 600 nM.
`Cc1cc(Nc2ccc(C(F)(F)F)c(F)c2)n2ccnc2n1` [Example 51, N-(3-fluoro-4-(trifluoromethyl)phenyl)-7-methylimidazo[1,2-a]pyrimidin-5-amine] showed a melting point of 302 to 304 °C.
As for `Cc1cc(Nc2ccc(S(F)(F)(F)(F)F)cc2)n2nc(C(C)C)nc2n1`, the half-maximal effective concentration (EC50) in series [2] (setting [4]) came to 420 nM.
Molecule `Cc1cc(Nc2ccc(F)cc2)n2nc(C(F)(F)F)nc2n1` had an IC50 in series [1] of 740 nM. The EC50 in series [2] (setting [3]) was found to be 8500 nM.
For the molecule `Cc1cc(NC2Cc3ccc(Br)cc3C2)n2ncnc2n1` (centres unmarked), the melting point turned out to be 164 °C.
In series [1], `Cc1cc(Nc2ccc3c(c2)CCCC3)n2nc(C(F)(F)F)nc2n1` returned an IC50 of 43 nM.
As for `Cc1cc(NC2CCc3cc(Cl)ccc3C2)n2ncnc2n1` (centres unmarked), half-maximal inhibition in series [1] (IC50) was put at 670 nM. Also, the EC50 in series [2] (setting [3]) was determined as 10000 nM.
In series [1], `Cc1cc(NC2Cc3ccccc3C2)n2ncnc2n1` had an IC50 of 500 nM. For the same molecule, in series [2] (setting [3]), the EC50 is 2400 nM.
Molecule `Cc1cc(Nc2ccc(C(F)(F)F)cc2)n2nc(C3CC3)nc2n1` yielded an IC50 in series [1] of 140 nM. Besides, the EC50 in series [2] (setting [4]) worked out at 150 nM.
Turning to `Cc1cc(Nc2ccc(S(F)(F)(F)(F)F)cc2)n2nc(C3CC3)nc2n1`, the EC50 in series [2] (setting [3]) came to 500 nM.
Regarding `Cc1cc(C)cc(Nc2cc(C)nc3nc(C(F)(F)F)nn23)c1`, the IC50 in series [1] worked out at 220 nM. In addition, the EC50 in series [2] (setting [3]) worked out at 700 nM.
Turning to `Cc1cc(Nc2ccc(C(F)(F)F)cc2)n2ccnc2n1`, the IC50 in series [1] amounted to 77 nM. For the same molecule, in series [2] (setting [3]), the EC50 was found to be 330 nM.
In turn, `Cc1cc(Nc2ccc(C)c(Cl)c2)n2nc(C(F)(F)F)nc2n1` returned an IC50 in series [1] of 130 nM. Further, the EC50 in series [2] (setting [3]) stood at 800 nM.
In series [1], `Cc1cc(Nc2ccc(S(F)(F)(F)(F)F)cc2)n2ncnc2n1` displayed an IC50 of 160 nM. Besides, the EC50 in series [2] (setting [3]) came to 18000 nM.

Broadly, the melting point is the temperature, or range, at which the solid turns liquid. For orientation: IC50 means the point on the concentration scale where inhibition reaches its midpoint. The EC50 is the concentration giving half of the maximal effect.
